# Molecular target: T1, USP28 (His-tagged USP28-FL-mammalian) (Homo sapiens, UniProt Q96RU2)
# T1 construct: Expression of USP28 (1-1077)-TEV-6*His (pTT5 vector); made in house; host or cells: Expi293f cells (pTT5 vector)
# T1 sequence (Q96RU2 1-1077): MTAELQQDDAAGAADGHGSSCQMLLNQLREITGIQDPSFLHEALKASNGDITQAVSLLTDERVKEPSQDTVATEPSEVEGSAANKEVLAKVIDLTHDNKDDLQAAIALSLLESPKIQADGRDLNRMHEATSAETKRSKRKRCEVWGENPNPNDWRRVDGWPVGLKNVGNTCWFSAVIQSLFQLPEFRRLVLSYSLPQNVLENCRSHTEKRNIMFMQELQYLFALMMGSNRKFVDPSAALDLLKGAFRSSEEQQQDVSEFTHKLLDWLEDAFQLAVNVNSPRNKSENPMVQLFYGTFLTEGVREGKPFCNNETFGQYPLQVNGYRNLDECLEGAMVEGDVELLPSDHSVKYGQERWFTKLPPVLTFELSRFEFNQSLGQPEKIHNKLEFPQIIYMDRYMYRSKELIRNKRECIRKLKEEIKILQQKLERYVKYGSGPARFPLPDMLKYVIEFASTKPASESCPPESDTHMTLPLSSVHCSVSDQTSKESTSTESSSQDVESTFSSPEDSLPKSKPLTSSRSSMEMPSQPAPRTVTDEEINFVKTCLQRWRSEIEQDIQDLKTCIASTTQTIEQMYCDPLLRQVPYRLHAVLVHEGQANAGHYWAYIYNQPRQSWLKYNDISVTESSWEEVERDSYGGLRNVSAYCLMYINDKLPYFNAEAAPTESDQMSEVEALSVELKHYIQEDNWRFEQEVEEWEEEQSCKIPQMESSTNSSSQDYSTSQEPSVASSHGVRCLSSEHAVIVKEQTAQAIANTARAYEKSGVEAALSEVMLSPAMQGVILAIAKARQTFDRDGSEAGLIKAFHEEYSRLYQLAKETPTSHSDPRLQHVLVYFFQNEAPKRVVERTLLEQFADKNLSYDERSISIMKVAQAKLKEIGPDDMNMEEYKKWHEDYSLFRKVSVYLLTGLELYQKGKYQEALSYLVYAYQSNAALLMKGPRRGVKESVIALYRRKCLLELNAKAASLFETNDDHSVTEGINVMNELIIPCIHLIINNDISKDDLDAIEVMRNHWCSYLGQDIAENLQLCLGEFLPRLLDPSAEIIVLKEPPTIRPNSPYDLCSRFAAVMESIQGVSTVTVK
# Assay: Ubiquitin-Rhodamine 110 Assay for USP28 Activity, Example A-1(a)
# Format: biochemical
# Conditions: Ubiquitin-Rhodamine 110 assay, Example A-1(a); read-out: USP28 A-1(a) IC50 range
# How it was run: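 Full-length His-tagged human USP28 (1-1077, Expi293f-expressed), […], with 25 nM Ub-Rh110 (<<Km) in pH 8.0 Tris buffer with BME, BGG, Triton X-100. 10-point dilutions (25 μM-1.3 nM), 45 min at room temperature, citric acid stop, fluorescence 485/535 nm; IC50 by 4-parameter fit.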
row,SMILES,IC50 [nM]
1,"Cc1ccc2c(N)c(C(=O)N[C@H]3COc4cc(N5CC6CCC[C@@]6(N)C5)ccc4C3)sc2n1 (stereo partly drawn) [Example 248, N-[(3R)-7-[(3aS)-3a-amino-octahydrocyclopenta[c]pyrrol-2-yl]-3,4-dihydro-2H-1-benzopyran-3-yl]-3-amino-6-methylthieno[2,3-b]pyridine-2-carboxamide]",1 to 50
2,"Cc1ccc2c(N)c(C(=O)N[C@H]3COc4cc(N5CC6CCC[C@]6(N)C5)ccc4C3)sc2n1 (stereo partly drawn) [Example 249, N-[(3R)-7-[(3aR)-3a-amino-octahydrocyclopenta[c]pyrrol-2-yl]-3,4-dihydro-2H-1-benzopyran-3-yl]-3-amino-6-methylthieno[2,3-b]pyridine-2-carboxamide]",1 to 50
3,"COC[C@@H]1CN(c2cc(F)c3c(c2)OC[C@H](NC(=O)c2sc4nc(C)ccc4c2N)C3)C[C@@H]1N [Example 250, 3-amino-N-[(3R)-7-[(3R,4R)-3-amino-4-(methoxymethyl)pyrrolidin-1-yl]-5-fluoro-3,4-dihydro-2H-1-benzopyran-3-yl]-6-methylthieno[2,3-b]pyridine-2-carboxamide]",1 to 50
4,"COC[C@H]1CN(c2cc(F)c3c(c2)OC[C@H](NC(=O)c2sc4nc(C)ccc4c2N)C3)C[C@H]1N [Example 251, 3-amino-N-[(3R)-7-[(3S,4S)-3-amino-4-(methoxymethyl)pyrrolidin-1-yl]-5-fluoro-3,4-dihydro-2H-1-benzopyran-3-yl]-6-methylthieno[2,3-b]pyridine-2-carboxamide]",1 to 50
5,"COC[C@@H]1CN(c2ccc3c(c2)CC[C@H](NC(=O)c2sc4nc(C)ccc4c2N)C3)C[C@@H]1N [Example 252, 3-amino-N-[(2S)-6-[(3R,4R)-3-amino-4-(methoxymethyl)pyrrolidin-1-yl]-1,2,3,4-tetrahydronaphthalen-2-yl]-6-methylthieno[2,3-b]pyridine-2-carboxamide]",50 to 200
6,"COC[C@H]1CN(c2ccc3c(c2)CC[C@H](NC(=O)c2sc4nc(C)ccc4c2N)C3)C[C@H]1N [Example 253, 3-amino-N-[(2S)-6-[(3S,4S)-3-amino-4-(methoxymethyl)pyrrolidin-1-yl]-1,2,3,4-tetrahydronaphthalen-2-yl]-6-methylthieno[2,3-b]pyridine-2-carboxamide]",1 to 50
7,"CCO[C@@H]1CN(c2ccc3c(n2)CC[C@H](NC(=O)c2sc4nc(C)ccc4c2N)C3)C[C@@H]1N [Example 254, 3-amino-N-[(6S)-2-[(3S,4R)-3-amino-4-ethoxypyrrolidin-1-yl]-5,6,7,8-tetrahydroquinolin-6-yl]-6-methylthieno[2,3-b]pyridine-2-carboxamide]",50 to 200
8,"CCO[C@H]1CN(c2ccc3c(n2)CC[C@H](NC(=O)c2sc4nc(C)ccc4c2N)C3)C[C@H]1N [Example 255, 3-amino-N-[(6S)-2-[(3R,4S)-3-amino-4-ethoxypyrrolidin-1-yl]-5,6,7,8-tetrahydroquinolin-6-yl]-6-methylthieno[2,3-b]pyridine-2-carboxamide]",50 to 200
9,"Cc1ccc2c(N)c(C(=O)N[C@H]3COc4cc(N5C[C@H](N)C(F)(F)C5)ccc4C3)sc2n1 [Example 256, 3-amino-N-[(3R)-7-[(4S)-4-amino-3,3-difluoropyrrolidin-1-yl]-3,4-dihydro-2H-1-benzopyran-3-yl]-6-methylthieno[2,3-b]pyridine-2-carboxamide]",1 to 50
10,"Cc1ccc2c(N)c(C(=O)N[C@H]3COc4cc(N5C[C@@H](N)C(F)(F)C5)ccc4C3)sc2n1 [Example 257, 3-amino-N-[(3R)-7-[(4R)-4-amino-3,3-difluoropyrrolidin-1-yl]-3,4-dihydro-2H-1-benzopyran-3-yl]-6-methylthieno[2,3-b]pyridine-2-carboxamide]",1 to 50
11,"Cc1ccc2c(N)c(C(=O)N[C@H]3COc4cc(N5C[C@H](N)C6(COC6)C5)ccc4C3)sc2n1 [Example 258, 3-amino-N-[(3R)-7-[(8R)-8-amino-2-oxa-6-azaspiro[3.4]octan-6-yl]-3,4-dihydro-2H-1-benzopyran-3-yl]-6-methylthieno[2,3-b]pyridine-2-carboxamide]",1 to 50
12,"Cc1ccc2c(N)c(C(=O)N[C@H]3COc4cc(N5C[C@@H](N)C6(COC6)C5)ccc4C3)sc2n1 [Example 259, 3-amino-N-[(3R)-7-[(8S)-8-amino-2-oxa-6-azaspiro[3.4]octan-6-yl]-3,4-dihydro-2H-1-benzopyran-3-yl]-6-methylthieno[2,3-b]pyridine-2-carboxamide]",1 to 50
13,"COC[C@@H]1C[C@@H](N)CN1c1ccc2c(c1)OC[C@H](NC(=O)c1sc3nc(C)ccc3c1N)C2 [Example 260, 3-amino-N-[(3R)-7-[(25,4R)-4-amino-2-(methoxymethyl)pyrrolidin-1-yl]-3,4-dihydro-2H-1-benzopyran-3-yl]-6-methylthieno[2,3-b]pyridine-2-carboxamide]",1 to 50

# Reference: patent publication US11524966B1 (Valo Early Discovery, Inc., priority 2017, dated 2022)
